Source: patent publication US7384914B2 (Emisphere Technologies, Inc., priority 2003, dated 2008)

Columns and labels:
[1] = Open-label single-dose crossover study of oral Insulin/4-CNAB in type 2 diabetic subjects (fasting / standard meal); format: in vivo, human
Source text: In the first part of the study, twenty-four human diabetic subjects (patients) of age 35-70 years, with elevated fasting blood glucose levels but in otherwise good general health on the basis of a medical history, physical examination and clinical laboratory studies, participated in the study and were studied in the overnight-fasted state on two occasions, separated by an interval of at least 7 days.

[2] = Genotoxicity studies; conditions: four genotoxicity studies
[3] = test system: primary molecular targets; test: Receptor binding screening assays
[4] = Pharmacokinetic studies of 4-CNAB after oral administration in mice; format: in vivo
[5] = 14-day oral repeated dose toxicity study in monkeys; conditions: rhesus monkey, in vivo, 14 days
Protocol: In toxicology studies, 4-CNAB doses from 400 mg to 2000 mg were evaluated.

[6] = Pharmacokinetic studies of 4-CNAB after oral administration in rats; format: in vivo
[7] = Pharmacokinetic studies of 4-CNAB after oral administration in monkeys; format: in vivo

O=C(O)CCCNC(=O)c1ccc(Cl)cc1O [4-CNAB, monosodium N-(4-chlorosalicyloyl)-4-aminobutyrate]
tolerability of 4-CNAB [1]: well tolerated | time of 4-CNAB concentration peak post administration ([1]; oral capsules): about 30 minutes | genotoxicity findings [2]: no positive findings | activity in primary molecular targets in receptor binding screening assays [3]: did not demonstrate potential activity | 4-CNAB absorption following oral administration [4]: absorbed rapidly | highest proposed dose of 2000 mg 4-CNAB in man (<30 mg/kg) lower than the NOAEL in monkeys [5]: 12-16 fold | 4-CNAB absorption following oral administration [6]: absorbed rapidly | 4-CNAB absorption following oral administration [7]: absorbed rapidly
